Laboratory results taken from patent US20080287398A1, “COLD MENTHOL RECEPTOR-1 ANTAGONISTS” (priority 2007, published 2008).
“And” between values parts separate entries of the source, which are not always exact repeats. Equal values may be shown once. Read-outs that look alike come from different tables or passages of the source.

Target: T1, canine TRPM8 (Canis lupus familiaris, UniProt Q1A7N1)
T1 construct: expressed in transfected cells
Assay: In vitro canine TRPM8 functional assay (Ca2+-sensitive dye, FLIPR/FDSS, icilin activation)
Assay type: cell-based
Details: HEK293 cells expressing canine TRPM8, icilin activation; for % I (0.5 μM): 0.5 μM compound; for % I (1 μM): 1 μM compound; for IC50: eight-point dose-response
Outline: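 Icilin challenge (final concentration producing ~80% of maximal response) followed a 5 min compound exposure in canine TRPM8-HEK293 cells dye-loaded with Calcium 3. Intracellular Ca2+ was read on FLIPR/FDSS. EC50 and IC50 values came from nonlinear sigmoidal dose-response fits of basal-subtracted, percent-of-maximum data averaged over quadruplicates.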

[1] = HEK293, read-out: % I (1 μM), 1 μM compound

T1 sequence (Q1A7N1 1-1104): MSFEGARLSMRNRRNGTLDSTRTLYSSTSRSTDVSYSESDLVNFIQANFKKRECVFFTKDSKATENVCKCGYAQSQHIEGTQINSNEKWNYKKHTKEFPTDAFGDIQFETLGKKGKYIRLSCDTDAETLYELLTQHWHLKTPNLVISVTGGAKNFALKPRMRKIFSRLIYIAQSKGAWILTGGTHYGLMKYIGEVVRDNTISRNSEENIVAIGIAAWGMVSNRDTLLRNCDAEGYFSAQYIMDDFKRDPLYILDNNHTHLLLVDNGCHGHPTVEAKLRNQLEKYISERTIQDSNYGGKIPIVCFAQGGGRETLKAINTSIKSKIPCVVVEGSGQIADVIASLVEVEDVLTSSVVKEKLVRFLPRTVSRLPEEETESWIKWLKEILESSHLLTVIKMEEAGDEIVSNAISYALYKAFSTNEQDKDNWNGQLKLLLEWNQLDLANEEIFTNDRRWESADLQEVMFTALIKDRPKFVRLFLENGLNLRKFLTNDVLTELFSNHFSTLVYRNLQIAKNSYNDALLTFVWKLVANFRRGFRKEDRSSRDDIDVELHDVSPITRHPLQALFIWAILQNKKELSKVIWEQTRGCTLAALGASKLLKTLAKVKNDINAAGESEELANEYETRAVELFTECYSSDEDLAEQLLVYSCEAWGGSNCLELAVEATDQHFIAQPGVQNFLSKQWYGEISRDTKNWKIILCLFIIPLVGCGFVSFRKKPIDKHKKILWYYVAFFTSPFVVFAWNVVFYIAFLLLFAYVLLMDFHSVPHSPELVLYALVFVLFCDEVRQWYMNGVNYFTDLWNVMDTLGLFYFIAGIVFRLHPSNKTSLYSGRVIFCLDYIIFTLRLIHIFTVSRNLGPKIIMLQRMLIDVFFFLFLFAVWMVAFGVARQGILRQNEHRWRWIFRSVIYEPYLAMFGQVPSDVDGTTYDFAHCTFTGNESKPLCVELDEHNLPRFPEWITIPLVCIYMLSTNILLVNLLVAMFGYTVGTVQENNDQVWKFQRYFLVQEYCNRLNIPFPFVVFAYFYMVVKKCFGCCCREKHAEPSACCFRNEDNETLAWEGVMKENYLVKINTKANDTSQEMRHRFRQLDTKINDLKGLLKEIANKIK

| Compound | % I (0.5 μM) | IC50 (read-out: IC50) | other results |
| --- | --- | --- | --- |
| (R)-[1-(3-Bromo-benzo[b]thiophen-2-yl)-2-(4-fluoro-phenyl)-ethyl]-phosphonic acid diisopropyl ester [Cpd 240] | 98% and 77% |  |  |
| CC(C)OP(=O)(OC(C)C)C(Cc1cc(C(F)(F)F)cc(Cl)c1F)c1sc2ccccc2c1Br (centres unmarked) [Cpd 195] |  | 0.061 µM | % I (1 μM): 103% |
| CC(C)OP(=O)(OC(C)C)C(Cc1cccc(Cl)c1F)c1sc2ccccc2c1Cl (centres unmarked) [Cpd 185] | 103% | 0.071 µM |  |
| CCOP(=O)(OCC)C(Cc1ccc(OC(F)(F)F)cc1)c1sc2ccccc2c1Cl (centres unmarked) [Cpd 277] | 103% | 0.116 µM |  |
| CC(C)OP(=O)(OC(C)C)C(Cc1cccc(C(F)(F)F)c1)c1sc2ccccc2c1Cl (racemic) [Cpd 170] | 103% | 0.073 µM |  |
| CCOP(=O)(OCC)C(Cc1ccccc1Br)c1sc2ccccc2c1C (centres unmarked) [Cpd 66] |  | 0.33 µM | % I (1 μM): 100% |
| CC(C)OP(=O)(OC(C)C)C(Cc1cccc(C(F)(F)F)c1F)c1sc2ccccc2c1Cl (racemic) [Cpd 168] | 104% | 0.076 µM |  |
| CCOP(=O)(OCC)C(Cc1cccc(Cl)c1)c1sc2ccccc2c1Cl (racemic) [Cpd 290] | 103% | 0.115 µM |  |
| CCOP(=O)(OCC)C(Cc1cc(C(F)(F)F)cc(C(F)(F)F)c1)c1sc2ccccc2c1Br (centres unmarked) [Cpd 261] | 102% | 0.073 µM and 0.077 µM |  |
| CCOP(=O)(OCC)C(Cc1ccc(C(F)(F)F)c(F)c1)c1sc2ccccc2c1Br (racemic) [Cpd 144] | 101% | 0.058 µM |  |
| CC(C)OP(=O)(OC(C)C)C(Cc1ccc(F)c(F)c1)c1oc2ccccc2c1Br (centres unmarked) [Cpd 124] |  | 0.049 µM | % I (1 μM): 103% |
| CCOP(=O)(OCC)C(Cc1ccc(S(=O)(=O)C(F)(F)F)cc1)c1sc2ccccc2c1Br (centres unmarked) [Cpd 262] | 103% | 0.066 µM |  |
| CCCCOP(=O)(OCCCC)C(Cc1ccc(F)c(F)c1)c1sc2ccccc2c1Br (centres unmarked) [Cpd 209, [1-(3-Bromo-benzo[b]thiophen-2-yl)-2-(3,4-difluoro-phenyl)-ethyl]-phosphonic acid dibutyl ester] |  | 0.071 µM | inhibition at 0.5 µM (HEK293, 0.5 μM compound, read-out: % I (0.5 μM)): 104% |
| CCOP(=O)(OCC)C(Cc1ccc(F)c(OC)c1)c1sc2ccccc2c1Br (centres unmarked) [Cpd 156] |  |  | inhibition at 0.5 µM (HEK293, read-out: % I (0.5 μM), 0.5 μM compound): 103%; IC50 (IC50 (μM)): 0.015 µM and 0.032 µM |
| CCOP(=O)(OCC)C(Cc1ccc(F)c(F)c1)c1oc2ccccc2c1C (centres unmarked) [Cpd 9, [2-(3,4-Difluoro-phenyl)-1-(3-methyl-benzofuran-2-yl)-ethyl]-phosphonic acid diethyl ester] |  |  | inhibition at 1 µM [1]: 100%; IC50 (IC50 (μM)): 0.041 µM |
| CCOP(=O)(OCC)C(Cc1cccc(C(F)(F)F)c1Cl)c1sc2ccccc2c1C (centres unmarked) [Cpd 81] |  | 0.44 µM and 0.61 µM | % I (1 μM): 100% and 87% |
| CCOP(=O)(OCC)C(Cc1cc(F)c(Cl)cc1Cl)c1sc2ccccc2c1C (centres unmarked) [Cpd 76] |  | 0.4 µM | % I (1 μM): 100% |
| CC(C)OP(=O)(OC(C)C)C(Cc1ccc(F)c(C(F)(F)F)c1)c1cc2ccccc2s1 (centres unmarked) [Cpd 125] |  | 0.39 µM | % I (1 μM): 103% |
| CCOP(=O)(OCC)C(Cc1cccc(C(F)(F)F)c1Cl)c1sc2ccccc2c1Cl (racemic) [Cpd 280] | 101% | 0.227 µM |  |
| CCOP(=O)(OCC)C(Cc1cc(Cl)ccc1F)c1sc2ccccc2c1Cl (racemic) [Cpd 305] | 102% | 0.07 µM |  |
| CC(C)OP(=O)(OC(C)C)C(Cc1ccc(C(F)(F)F)cc1F)c1sc2ccccc2c1Br (racemic) [Cpd 289] | 103% | 0.051 µM |  |
| CC(C)OP(=O)(OC(C)C)C(Cc1cccc(F)c1F)c1sc2ccccc2c1Br (centres unmarked) [Cpd 194] |  | 0.041 µM | % I (1 μM): 103% |

| Compound | % I (0.5 μM) | IC50 (read-out: IC50) | other results |
| --- | --- | --- | --- |
| CCOP(=O)(OCC)C(Cc1ccc(F)c(C(F)(F)F)c1)c1sc2cccc(F)c2c1Br (racemic) [Cpd 223] | 102% | 0.052 µM |  |
| CCOP(=O)(OCC)C(Cc1ccc(OC)c(F)c1)c1sc2ccccc2c1Br (racemic) [Cpd 158] | 101% | 0.059 µM |  |
| CCOP(=O)(OCC)C(Cc1ccc(F)c(F)c1)c1sc2cc(Cl)ccc2c1C1CCCC1 (centres unmarked) [Cpd 117, [1-(6-Chloro-3-cyclopentyl-benzo[b]thiophen-2-yl)-2-(3,4-difluoro-phenyl)-ethyl]-phosphonic acid diethyl ester] |  |  | inhibition at 1 µM [1]: 28% |
| CCOP(=O)(OCC)C(Cc1cc(F)cc(C(F)(F)F)c1)c1sc2ccccc2c1Cl (centres unmarked) [Cpd 278] | 103% | 0.159 µM |  |
| COCCOCCOP(=O)(OCCOCCOC)C(Cc1ccc(F)c(F)c1)c1sc2ccccc2c1Br (racemic) [Cpd 210] | 62% |  |  |
| CCOP(=O)(OCC)C(Cc1ccc(OC)c(C(F)(F)F)c1)c1sc2ccccc2c1Cl (racemic) [Cpd 292] | 99% | 0.216 µM |  |
| CC(C)OP(=O)(OC(C)C)C(Cc1cc(C(F)(F)F)cc(Cl)c1F)c1cc2ccccc2s1 (centres unmarked) [Cpd 126] |  | 0.41 µM | % I (1 μM): 100% |
| CC(C)OP(=O)(OC(C)C)C(Cc1ccc(S(=O)(=O)C(F)(F)F)cc1)c1sc2ccccc2c1Cl (centres unmarked) [Cpd 264] | 103% | 0.029 µM |  |
| CC(C)OP(=O)(OC(C)C)C(Cc1ccc(F)c(F)c1)c1cc2ccccc2s1 (centres unmarked) [Cpd 63, [1-Benzo[b]thiophen-2-yl-2-(3,4-difluoro-phenyl)-ethyl]-phosphonic acid diisopropyl ester] |  | 0.3 µM | inhibition at 1 µM (HEK293, 1 μM compound, read-out: % I (1 μM)): 100% |
| COc1ccc(CC(c2sc3ccccc3c2Br)P(=O)(OC(C)C)OC(C)C)cc1C(F)(F)F (centres unmarked) [Cpd 326] | 103% and 102% | 0.086 µM and 0.051 µM |  |
| CCOP(=O)(OCC)C(Cc1cc(F)cc(Cl)c1)c1sc2ccccc2c1Cl (centres unmarked) [Cpd 276] | 103% | 0.114 µM |  |
| [2-(3,4-Difluoro-phenyl)-1-(3-methyl-benzo[b]thiophene-2-yl)-ethyl]-[3-(4-methoxy-phenyl)-propyl]-phosphonic acid ethyl ester [Cpd 136] |  | 0.42 µM | % I (1 μM): 91% |
| CCOP(=O)(OCC)C(Cc1ccc(F)c(F)c1)c1sc2ccccc2c1-c1ccc(F)cc1 (racemic) [Cpd 220] | 101% | 0.207 µM |  |
| CCOP(=O)(OCC)C(Cc1cc(O)c(Cl)cc1F)c1sc2ccccc2c1Br (racemic) [Cpd 231] | 98% | 0.122 µM |  |
| CC(C)OP(=O)(OC(C)C)C(Cc1ccc(F)cc1)c1sc2ccccc2c1Cl (racemic) [Cpd 306] | 101% and 102% |  |  |
| CCOP(=O)(OCC)C(Cc1ccc(SC(F)(F)F)cc1)c1sc2ccccc2c1Br (racemic) [Cpd 153] | 103% | 0.043 µM |  |
| CC(C)OP(=O)(OC(C)C)C(Cc1ccc(F)c(F)c1)c1oc2cccc(F)c2c1Br (racemic) [Cpd 205] |  | 0.05 µM | % I (1 μM): 101% |
| CCOP(=O)(OCC)C(Cc1ccc(OC(F)(F)F)c(Cl)c1)c1sc2ccccc2c1Br (racemic) [Cpd 149] | 103% | 0.06 µM |  |
| CCOP(=O)(OCC)C(Cc1ccccc1C)c1cc2ccccc2s1 (centres unmarked) [Cpd 89] |  | 0.52 µM | % I (1 μM): 91%; % I (5 μM) (5 μM compound): 100% |
| CC(C)OP(=O)(OC(C)C)C(Cc1ccccc1)c1sc2ccccc2c1Cl (centres unmarked) [Cpd 179] | 103% | 0.068 µM |  |
| CC(C)OP(=O)(OC(C)C)C(Cc1ccc(Cl)c(C(F)(F)F)c1)c1sc2ccccc2c1Cl (racemic) [Cpd 167] | 104% | 0.097 µM |  |
